In patent US10982100B2, “Slippery liquid-infused porous surfaces and biological applications thereof” (President and Fellows of Harvard College, priority 2011, dated 2021):
Read-outs that look alike come from different tables or passages of the source.

Assays:
[1] = Surface tension of polar and non-polar liquids; assay type: physicochemical
Excerpt: Fluid-fluid interfacial tension can be measured by many well-established techniques, such as the Wilhelmy plate method, the Du Noüy ring method, and the pendant drop method (e.g., see Drelich et al., in Encyclopedia of Surface and Colloid Science, pp. 3152-3166, Marcel Dekker Inc, 2002, the contents of which is incorporated by reference herein in its entirety). Among all of the techniques, the pendant drop method is among the most popular and versatile technique, which can be easily extended to a two-liquid system. The pendant drop method measures the shape of a fluid-fluid interface and quantifies the shape distortion due to the competition between the fluid-fluid interfacial tension and gravity. In practice, a drop of denser fluid (e.g., Object A) is suspended by a syringe needle in medium X (i.e., air/water/the lubricating fluid). Owing to the influence of gravity, the denser liquid droplet will be deformed as the liquid volume increases. The shape profile of the liquid droplet is captured by an optical system and subsequently analyzed by a computer software when the liquid volume is increased to the maximum possible size (i.e., before the liquid drop is detached from the syringe needle). The interfacial tension of the fluid-fluid interface, γ, can then be deduced from the formula, γ=ΔρgD^2/H, where Δρ is the density difference between the two immiscible fluids, g is gravity, D is equatorial diameter of the liquid droplet, and H is drop shape dependent parameters which is a function of the shape profile of the droplet.

P. aeruginosa = settings: 1% and 0.1% concentrations; 3, 6, 9, and 30 hours; 550 nm
[2] = Contact angles of various liquids on flat solids; assay type: physicochemical; design: unit not given here
Description: The behavior of liquids on surfaces is described by an equilibrium contact angle. An equilibrium contact angle, θ, is the angle at which a liquid/vapor interface meets a solid surface, which is determined by the interactions across the three interfaces, e.g., solid/liquid/vapor. […] The upper limit is known as the apparent advancing contact angle (θA), whereas the lower limit is referred as the apparent receding contact angle (θR). The difference between these values is known as contact angle hysteresis (i.e., Δθ=θA−θR, where θA≥θ≥θR), which characterizes the liquid repellency of a surface. Conventionally, equilibrium contact angle can be roughly estimated by the average of the advancing and receding angles (i.e., θ=(θA+θR)/2), or by a static contact angle, θstatic (i.e., θ=θstatic).
In practice, contact angle measurement can be performed by a number of different well-established techniques, such as the sessile drop method and the Wilhelmy method. In particular, the sessile drop method is among the most popular technique for contact angle measurement. In this technique, a liquid droplet is deposited on a targeted solid surface, where the liquid profile is captured by an optical system of a goniometer and geometrically fitted to obtain the contact angle. The contact angle measured from a static liquid droplet deposited on the surface is known as the static contact angle, θstatic. Using the same system, advancing contact angle, θA, can be measured while the volume of the drop is increasing until the wetting line starts to advance. Receding contact angle, θR, can be measured by decreasing the volume of the drop and determining the contact angle just before the wetting line recedes. Alternatively, the advancing and the receding angles of the liquid drop can also be determined by gradually tilting the solid surface until the liquid drop starts to move.

[3] = test system: Pseudomonas aeruginosa (PA-14); test: Toxicity screening of lubricating fluids by CFU quantification; settings: 1% versus 0.01% of product in tryptone broth, 37° C. overnight, orbital shaker
Description: (§1) The toxicity screening assay was based on adding 1% and 0.01% of each commercial product to 10 mL aliquots of tryptone broth, which were inoculated with 1% initial seeding concentration of Pseudomonas aeruginosa (PA-14) preculture and incubated at 37° C. overnight in an orbital shaker. The shaken culture was serially diluted, plated, and incubated for colony forming unit (CFU) quantification.

[4] = Leaching of infiltrated oil in a microfluidic system under water flow; assay type: physicochemical
Description: Experiments were conducted to determine whether fluid from SLIPS leach into the surrounding biological fluid. A nanostructured post array surface (2 μm tall posts, 300 nm diameter, 0.9 μm spacing) with infiltrated perfluorinated oil (Fluorinert FC-70) was integrated into a microfluidic system. Deionized water flowed into the channel at a rate of 12 mL/min (i.e., 720 mL/hr) for 5 minutes. […] The slipperiness of the surface was examined by putting a droplet of decane on the surface. If decane applied to the surface maintains its mobility on the surface, then the lubricants remain attached on the structured surface. However, if decane remains pinned on the surface, the lubricant layer has not been maintained. Leaching can also be monitored by extracting fluid that has passed over SLIPS into a fluorinated solvent followed by followed by chromatography and mass spectrometry and 19F-NMR.
Defining maximum leaching of the infiltrated fluid as the ratio between the total amounts of the perfluorinated oil infiltrated the surface and the volume of water processed in the microfluidic system, the maximum leaching was <0.2%. Because perfluorocarbons are already approved by the Food and Drug Administration as blood substitutes, leaching of this amount of oil is expected to be harmless. […]

[5] = test system: Pseudomonas aeruginosa (PA-14)
Description: as §1

[6] = flat solid S. (silanized epoxy)

SMILES	Surface Tension [1] [mN/m]	bacterial growth (optical densities) compared to control culture (P. aeruginosa)	Measured contact angle θadv ([2]; flat solid Epoxy)	Measured contact angle θrec ([2]; flat solid Epoxy)	Measured contact angle θstatic ([2]; flat solid Epoxy)	Measured contact angle θadv [2, 6]	Measured contact angle θrec [2, 6]	Measured contact angle θstatic [2, 6]	toxicity screening, CFU [3]	retention of infiltrated oil on nanostructured surface ([4]; deionized water 12 mL/min for 5 minutes, nanostructured post array)	maximum leaching ([4]; ratio of total infiltrated oil to volume of water processed) [%]	toxicity screening, CFU [5]
FC(F)(F)C(F)(F)C(F)(F)C(F)(F)C(F)(F)N(C(F)(F)C(F)(F)C(F)(F)C(F)(F)C(F)(F)F)C(F)(F)C(F)(F)C(F)(F)C(F)(F)C(F)(F)F [FC-70, perfluoro-tripentylamine]	17.1 ± 0.3	statistically indistinguishable bacterial growth	35.1 ± 0.6	26.7 ± 1.4	33.5 ± 1.1	23.7 ± 4.1	0.0 ± 0.0	14.1 ± 0.8	Significantly reduced CFU	remained intact	< 0.2	
FC1(F)C(F)(F)C(F)(F)C2(F)C(F)(F)C(F)(F)C(F)(F)C(F)(F)C2(F)C1(F)F (stereo not shown) [Perfluorodecalin]		statistically indistinguishable bacterial growth										Significantly reduced CFU
